One data set relates to MGC-803. Nature of the data set: Cytotoxicity against human MGC803 cells after 72 hrs by MTT assay. Type of data set: functional, cell-based. The note with it: MGC-803, 72 h. (Formazan colour is commonly taken as a measure of viable cells.)
The nature of data set [1]: Selectivity index, ratio of IC50 for human HSF cells to IC50 for human HCT15 cells. The data set is classed as toxicity. The note with it: HSF cells versus HCT15 cells, read-out: Ratio IC50.
The subject of the next data set is K562. Nature of the data set: Cytotoxicity against human K562 cells after 72 hrs by MTT assay. Type of data set: functional, cell-based. To be noted: K562, 72 h.
Data set [2] can be described thus: Cytotoxicity against human HSF cells after 72 hrs by MTT assay. The data set is classed as cell-based.
Another data set concerns HCT-15. The experiment in a line: Cytotoxicity against human HCT15 cells after 72 hrs by MTT assay. The data set is classed as functional, cell-based. The note with it: HCT-15, 72 h.
A short description of data set [3]: Selectivity ratio of IC50 for human A549 cells to IC50 for human A549/TAX cells. Type of data set: functional.
A short description of data set [4]: Selectivity ratio of IC50 for human […] cells to IC50 for human Bel7402/5-FU cells. Type of data set: functional.
For a further data set, the system named is NCI/ADR-RES. Nature of the data set: Cytotoxicity against human MCF7/ADR cells after 72 hrs by MTT assay. The data set is classed as functional, cell-based.
Data set [5] is described as follows: Cytotoxicity against human […] cells after 72 hrs by MTT assay. The data set is classed as functional, cell-based.
The subject of the next data set is MCF7. The experiment in a line: Cytotoxicity against human MCF7 cells after 72 hrs by MTT assay. The data set is classed as functional, cell-based. The note with it: MCF7, 72 h.
In the next data set the test system is A549. The experiment in a line: Cytotoxicity against human A549 cells after 72 hrs by MTT assay. The data set is classed as functional, cell-based. The note with it: A549, 72 h.
Data set [6] can be described thus: Selectivity ratio of IC50 for human MCF7 cells to IC50 for human MCF7/ADR cells. Type of data set: functional.
A further data set has as its system Bel7402/5-FU. Nature of the data set: Cytotoxicity against human Bel7402/5-FU cells after 72 hrs by MTT assay. Type of data set: functional, cell-based.
Another data set concerns A549/TR. The experiment in a line: Cytotoxicity against human A549/TAX cells after 72 hrs by MTT assay. Type of data set: functional, cell-based.

Structures are written as SMILES.

Usually IC50 stands for the concentration that inhibits the measured activity by half. Read a low IC50 as greater potency in that assay.

Turning to `CCCCCCCCC(c1cc(OC)c2c(c1OC)/C(=N/O)C=C/C2=N\O)S(=O)(=O)CCC(C)C` (stereo not drawn), the IC50 with MGC-803 was 7.82 µM; in the data set on K562, 1.29 µM; in [2] it was above 50 µM; in the data set on HCT-15 it was 3.89 µM. In data set [1], the selectivity ratio was above 12.6.
Turning to `CC(=O)O[C@H]1C(=O)[C@@]2(C)[C@H]([C@H](OC(=O)c3ccccc3)[C@]3(O)C[C@H](OC(=O)[C@H](O)[C@@H](NC(=O)c4ccccc4)c4ccccc4)C(C)=C1C3(C)C)[C@]1(OC(C)=O)CO[C@@H]1C[C@@H]2O` [PACLITAXEL], the “Ratio IC50” value in data set [3] came out at 0.02; in data set [4], 0.06; in [6], 0.03. Besides, the IC50 in the data set on NCI/ADR-RES was found to be 17.7 µM; in [5], 0.65 µM; in the data set with MCF7 it was 0.47 µM; in the data set with A549 it was 0.54 µM; with Bel7402/5-FU, 10.5 µM; in the data set with A549/TR, 24.5 µM.
With `CCCCCCCCCCCCC(SC(=O)c1cc(OC)c(OC)c(OC)c1)c1cc(OC)c2c(c1OC)/C(=N/O)C=C/C2=N\O` (stereo not drawn), the half-maximal inhibitory concentration (IC50) in the data set with MGC-803 is 7.59 µM; with K562 it was 4.41 µM; in data set [2], above 50 µM; in the data set on HCT-15 it was 5.42 µM. For the same compound, the selectivity ratio in data set [1] was above 7.85.
The matching figures for `CCCCCCCCCCC(SCCC(C)C)c1cc(OC)c2c(c1OC)/C(=N/O)C=C/C2=N\O` (stereo not drawn): 8.91 µM, 5.49 µM, above 50 µM, 4.75 µM and above 10.5.
Consider `CCCCCCCCCCCCCCC(SC(=O)c1cc(OC)c(OC)c(OC)c1)c1cc(OC)c2c(c1OC)/C(=N/O)C=C/C2=N\O` (stereo not drawn), for which the IC50 in the data set on MGC-803 was 9.68 µM; with K562, 5.83 µM; in [2], above 50 µM; in the data set on HCT-15 it was 7.98 µM. In addition, the selectivity ratio in data set [1] was above 6.27.
In the case of `CCCCCCCCCCC(SCCCCCC)c1cc(OC)c2c(c1OC)/C(=N/O)C=C/C2=N\O` (stereo not drawn), the IC50 was 18.5 µM in the data set with MGC-803, 10.8 µM in the data set with K562, above 50 µM in [2] and 10.3 µM in the data set with HCT-15. For the same compound, in data set [1], the selectivity ratio is above 4.86.
The corresponding values for `CCCCCCCCC(SCC)c1cc(OC)c2c(c1OC)/C(=N/O)C=C/C2=N\O` (stereo not drawn) are 4.39 µM, 2.71 µM, above 50 µM, 2.32 µM and above 21.6.
The corresponding values for `CCCCCCC(SC(=O)c1cc(OC)c(OC)c(OC)c1)c1cc(OC)c2c(c1OC)/C(=N/O)C=C/C2=N\O` (stereo not drawn) are 4.92 µM, 1.52 µM, above 50 µM, 2.21 µM and above 22.6.
The corresponding values for `CCCCCCCCCCCCC(SCCC(C)C)c1cc(OC)c2c(c1OC)/C(=N/O)C=C/C2=N\O` (stereo not drawn) are 17.4 µM, 10.1 µM, above 50 µM, 13 µM and above 3.86.
Take `CC(C)=CC[C@@H](O)C1=CC(=O)c2c(O)ccc(O)c2C1=O` [SHIKONIN]: the selectivity ratio in [1] is 1.45. Further, the IC50 worked out at 1.02 µM in the data set on K562 and 1.25 µM in [2].
For the compound `CCCCCCCCCCC(SC(=O)c1cc(OC)c(OC)c(OC)c1)c1cc(OC)c2c(c1OC)/C(=N/O)C=C/C2=N\O` (stereo not drawn), the half-maximal inhibitory concentration (IC50) is 4.66 µM with MGC-803, 1.96 µM with K562, above 50 µM in [2] and 1.39 µM with HCT-15. The selectivity ratio in data set [1] was above 36.
The corresponding values for `CCCCCCCCCCCCCCC(SCCC(C)C)c1cc(OC)c2c(c1OC)/C(=N/O)C=C/C2=N\O` (stereo not drawn) are 38.2 µM, 25.7 µM, above 50 µM, 22.5 µM and above 2.22.
The corresponding values for `CCCCC(SCCC(C)C)c1cc(OC)c2c(c1OC)/C(=N/O)C=C/C2=N\O` (stereo not drawn) are 5.96 µM, 2.03 µM, above 50 µM, 2.92 µM and above 17.1.
The matching figures for `CCCCCCCCC(SCCCCCC)c1cc(OC)c2c(c1OC)/C(=N/O)C=C/C2=N\O` (stereo not drawn): 1.91 µM, 1.14 µM, above 50 µM, 1.08 µM and above 46.3.
For `CCCCC(SC(=O)c1cc(OC)c(OC)c(OC)c1)c1cc(OC)c2c(c1OC)/C(=N/O)C=C/C2=N\O` (stereo not drawn), the IC50 in the data set on MGC-803 is 14.7 µM; with K562, 6.35 µM; in data set [2], above 50 µM; with HCT-15, 7.73 µM. Besides, the selectivity ratio in data set [1] is above 6.47.
The matching figures for `CCCCCCC(c1cc(OC)c2c(c1OC)/C(=N/O)C=C/C2=N\O)S(=O)(=O)CCC(C)C` (stereo not drawn): 15.7 µM, 4.25 µM, above 50 µM, 7.33 µM and above 6.82.
As to `COc1cccc2c1C(=O)c1c(O)c3c(c(O)c1C2=O)C[C@@](O)(C(=O)CO)C[C@@H]3O[C@H]1C[C@H](N)[C@H](O)[C@H](C)O1.Cl` [DOXORUBICIN HYDROCHLORIDE], the “Ratio IC50” value in [3] turned out to be 0.04; in [4] it was 0.12; in data set [6] it was 0.01. Besides, the IC50 in the data set on NCI/ADR-RES was 39.5 µM; in data set [5], 1.32 µM; with MCF7 it was 0.42 µM; in the data set with Bel7402/5-FU, 11 µM; with A549/TR it was 42.6 µM.
Regarding `CCCCCCCCC(SC(=O)c1cccs1)c1cc(OC)c2c(c1OC)/C(=N/O)C=C/C2=N\O` (stereo not drawn), the IC50 in the data set on MGC-803 was 3.71 µM; in the data set with K562, 0.95 µM; in data set [2], above 50 µM; with HCT-15, 1.22 µM. Besides, the selectivity ratio in [1] is above 41.
With `O=c1[nH]cc(F)c(=O)[nH]1` [FLUOROURACIL], the “Ratio IC50” value in data set [3] came to 0.26; in data set [4], 0.02; in data set [6] it was 0.05. In addition, the IC50 was above 50 µM with MGC-803; 513 µM in the data set on NCI/ADR-RES; 22.9 µM in data set [5]; 12.2 µM with K562; above 50 µM in data set [2]; 26.6 µM with MCF7. In addition, the IC50 is 28.6 µM in the data set with A549, 936 µM in the data set with Bel7402/5-FU and 112 µM in the data set on A549/TR. Besides, the selectivity ratio in data set [1] is above 6.64.
For `CCCCCCC(SCCC(C)C)c1cc(OC)c2c(c1OC)/C(=N/O)C=C/C2=N\O` (stereo not drawn), the half-inhibitory concentration (IC50) with MGC-803 was 1.9 µM; in the data set on K562, 1.28 µM; in data set [2], above 50 µM; in the data set with HCT-15 it was 1.04 µM. In addition, in [1], the selectivity ratio is above 48.1.
The matching figures for `CCCCCCCCC(SC(=O)c1ccco1)c1cc(OC)c2c(c1OC)/C(=N/O)C=C/C2=N\O` (stereo not drawn): 5.26 µM, 1.38 µM, above 50 µM, 2.42 µM and above 20.7.
As for `CCCCCCCCCCSC(CCCCCCCCCC)c1cc(OC)c2c(c1OC)/C(=N/O)C=C/C2=N\O` (stereo not drawn), the half-inhibitory concentration (IC50) with MGC-803 is above 50 µM; in the data set on K562, 40.3 µM; in data set [2], above 50 µM; in the data set with HCT-15, 35.2 µM. The selectivity ratio in data set [1] is above 1.42.
On to `CCC(SCCC(C)C)c1cc(OC)c2c(c1OC)/C(=N/O)C=C/C2=N\O` (stereo not drawn), for which the IC50 in the data set on MGC-803 is 10.4 µM; in the data set with K562 it was 3.28 µM; in data set [2], above 50 µM; in the data set with HCT-15, 5.23 µM. Moreover, the selectivity ratio in data set [1] was above 22.4.
The matching figures for `CCC(SC(=O)c1cc(OC)c(OC)c(OC)c1)c1cc(OC)c2c(c1OC)/C(=N/O)C=C/C2=N\O` (stereo not drawn): 30.3 µM, 14.4 µM, above 50 µM, 12.5 µM and above 18.2.
The matching figures for `CCCCCCCCCCCCCCC(c1cc(OC)c2c(c1OC)/C(=N/O)C=C/C2=N\O)S(=O)(=O)CCC(C)C` (stereo not drawn): 3.53 µM, 1.56 µM, above 50 µM, 2.74 µM and above 7.44.
The corresponding values for `CCCCCCCCCCC(SCC)c1cc(OC)c2c(c1OC)/C(=N/O)C=C/C2=N\O` (stereo not drawn) are 1.87 µM, 1.05 µM, above 50 µM, 0.89 µM and above 56.2.
As to `CCCCCCCCCCC(SCCCCC)c1cc(OC)c2c(c1OC)/C(=N/O)C=C/C2=N\O` (stereo not drawn), the IC50 was 12.1 µM with MGC-803, 7.21 µM in the data set on K562, above 50 µM in data set [2] and 6.34 µM with HCT-15. Further, the selectivity ratio in [1] is above 7.89.
The corresponding values for `CCCCCCCCCC(SCCC(C)C)c1cc(OC)c2c(c1OC)/C(=N/O)C=C/C2=N\O` (stereo not drawn) are 1.54 µM, 0.98 µM, above 50 µM, 0.92 µM and above 54.3.
The matching figures for `CCCCCCCCC(SC(=O)c1ccc(C(F)(F)F)cc1)c1cc(OC)c2c(c1OC)/C(=N/O)C=C/C2=N\O` (stereo not drawn): 6.34 µM, 4.45 µM, above 50 µM, 3.82 µM and above 13.1.
